# Measurements: patent publication US6605626B2, “Antithrombotic agents” (Eli Lilly and Company, priority 1997, dated 2003)
row,Structure (SMILES),melting point [°C]
1,"CCNc1ccc(C(=O)Nc2ccc(OC)cc2)c(NC(=O)c2ccc(C(C)(C)C)cc2)c1 [Example 60a, 2-(4-tert-Butylbenzoylamino)-4-ethylamino-N-(4-methoxyphenyl)benzamide]",205 to 207.5
2,"COc1ccc(NC(=O)c2ccccc2NC(=O)c2ccc(C(C)(C)C)cc2)cc1 [Example 89, 2-(4-tert-Butylbenzoylamino)-N-(4-methoxyphenyl)benzamide]",208 to 210
3,"COc1ccc(C(=O)Nc2ccc(OC)cc2NC(=O)c2ccc(OC)cc2)cc1 [Example 155, 4-Methoxy-N^1,N^2-bis(4-methoxybenzoyl)-1,2-benzenediamine]",238 to 239
4,"COc1ccc(C(=O)Nc2cccc(O)c2NC(=O)c2ccc(OC)cc2)cc1 [Example 158, 2,3-bis[(4-Methoxybenzoyl)amino]phenol]",208 to 209
